# Test results reported in patent publication US9011867B2, “Use of specific peptides in the preparation of a medicament for the treatment of monoclonal gammopathy of undetermined significance (MGUS) or of smoldering multiple myeloma (SMM)” (Ruprecht-Karls-Universitat Heidelberg, priority 2009, dated 2015).
# Key:
# [1] = tested on: Melan-A analogue specific T-cells; test: IFN-γ ELISpot-assay with peptide pulsed T2 cells, Melan-A analogue specific T-cells as effectors; assay type: cell-based, human; settings: for activation of Melan-A analogue specific T-cells by peptide pulsed T2 cells (IFN-γ ELISpot): T-cells from HLA-A2+ HD, ET ratio 2.5/1, FIG. 1A
# [2] = tested on: HM1.24aa22-30-specific T-cells; test: IFN-γ ELISpot-assay with peptide pulsed T2 cells, HM1.24aa22-30-specific T-cells as effectors; assay type: cell-based, human; settings: T-cells from HLA-A2+ HD; ET ratio 2.5/1; FIG. 1A
Sequence,activation of Melan-A analogue specific T-cells by peptide pulsed T2 cells (IFN-γ ELISpot) [1],"IFN-γ production of Melan-A analogue specific T-cells activated by peptide pulsed T2 cells ([1]; T-cells from MM patient no. 10, FIG. 4B)",activation of HM1.24aa22-30-specific T-cells by peptide pulsed T2 cells (IFN-γ ELISpot) [2]
LLLGIGILV (peptide (HM 1.24)) [HM1.24aa22-30],strong activation,produced IFN-γ,–
VLLGLSALL [HM1.24aa171-179],activated neither,–,activated neither
